Measured values taken from ChEMBL document CHEMBL1133403 (Bioorg Med Chem Lett, 2000).
pEC50, pIC50, pKi: −log10 of the molar value.

How the values were obtained:
[1] = biological target: T1, Mineralocorticoid receptor (Homo sapiens, UniProt P08235); experiment: Cross-reactivity as binding to human mineralocorticoid receptor (hMR); type: functional
T1 sequence (P08235 whole entry): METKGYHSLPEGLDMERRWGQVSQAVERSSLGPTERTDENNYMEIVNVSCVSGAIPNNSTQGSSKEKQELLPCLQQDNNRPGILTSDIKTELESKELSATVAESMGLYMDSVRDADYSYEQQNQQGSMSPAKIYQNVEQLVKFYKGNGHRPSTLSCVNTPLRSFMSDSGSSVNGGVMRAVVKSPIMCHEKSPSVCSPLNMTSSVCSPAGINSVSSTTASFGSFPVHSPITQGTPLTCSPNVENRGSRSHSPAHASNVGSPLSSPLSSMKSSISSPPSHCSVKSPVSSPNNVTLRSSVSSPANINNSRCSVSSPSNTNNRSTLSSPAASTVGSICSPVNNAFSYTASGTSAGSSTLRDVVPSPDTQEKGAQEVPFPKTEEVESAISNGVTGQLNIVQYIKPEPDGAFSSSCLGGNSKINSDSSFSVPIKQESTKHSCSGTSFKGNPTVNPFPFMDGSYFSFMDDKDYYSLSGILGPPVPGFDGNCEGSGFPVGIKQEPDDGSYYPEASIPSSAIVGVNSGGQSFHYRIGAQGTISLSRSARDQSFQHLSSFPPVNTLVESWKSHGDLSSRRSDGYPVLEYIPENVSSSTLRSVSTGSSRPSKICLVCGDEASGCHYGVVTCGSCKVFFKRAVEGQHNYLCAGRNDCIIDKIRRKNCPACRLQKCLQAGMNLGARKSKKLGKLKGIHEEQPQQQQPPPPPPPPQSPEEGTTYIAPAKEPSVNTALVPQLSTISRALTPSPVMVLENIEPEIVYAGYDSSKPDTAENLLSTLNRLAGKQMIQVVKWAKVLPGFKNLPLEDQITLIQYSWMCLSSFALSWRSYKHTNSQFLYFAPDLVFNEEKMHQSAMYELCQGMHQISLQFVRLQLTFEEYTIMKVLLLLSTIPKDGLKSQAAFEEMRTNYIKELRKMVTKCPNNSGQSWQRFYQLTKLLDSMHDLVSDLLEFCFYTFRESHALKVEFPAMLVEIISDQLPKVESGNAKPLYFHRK

Androgen receptor = biological target: T2, Androgen receptor (Homo sapiens, UniProt P10275); experiment: Cross-reactivity as binding to human androgen receptor (hAR); type: functional
T2 sequence (P10275 whole entry): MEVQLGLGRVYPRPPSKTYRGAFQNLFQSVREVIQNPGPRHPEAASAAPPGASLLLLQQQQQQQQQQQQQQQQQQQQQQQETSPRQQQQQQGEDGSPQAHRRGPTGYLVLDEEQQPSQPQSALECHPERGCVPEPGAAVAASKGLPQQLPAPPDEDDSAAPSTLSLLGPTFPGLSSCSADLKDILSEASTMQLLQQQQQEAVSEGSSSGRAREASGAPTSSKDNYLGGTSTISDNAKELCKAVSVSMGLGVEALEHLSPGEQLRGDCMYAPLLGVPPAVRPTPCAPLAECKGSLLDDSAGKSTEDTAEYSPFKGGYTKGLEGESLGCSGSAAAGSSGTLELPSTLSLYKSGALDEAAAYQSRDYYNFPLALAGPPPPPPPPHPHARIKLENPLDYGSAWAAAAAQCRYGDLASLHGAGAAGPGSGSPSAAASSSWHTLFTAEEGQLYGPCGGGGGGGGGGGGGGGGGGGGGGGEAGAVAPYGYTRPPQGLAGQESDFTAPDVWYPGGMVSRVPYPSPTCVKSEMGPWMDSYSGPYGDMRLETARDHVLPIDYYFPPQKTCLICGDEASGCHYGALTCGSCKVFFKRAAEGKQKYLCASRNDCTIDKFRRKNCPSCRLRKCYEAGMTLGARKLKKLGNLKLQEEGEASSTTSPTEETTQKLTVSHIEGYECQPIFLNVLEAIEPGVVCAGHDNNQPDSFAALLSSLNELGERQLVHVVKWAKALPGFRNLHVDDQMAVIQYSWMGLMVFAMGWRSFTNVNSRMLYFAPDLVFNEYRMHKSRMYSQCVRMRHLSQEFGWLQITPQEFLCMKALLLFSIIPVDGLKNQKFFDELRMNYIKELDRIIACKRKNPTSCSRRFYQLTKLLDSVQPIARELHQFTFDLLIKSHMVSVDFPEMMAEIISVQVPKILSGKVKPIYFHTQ

Progesterone receptor [2] = biological target: T3, Progesterone receptor (Homo sapiens, UniProt P06401); experiment: Antagonist activity against human progesterone receptor (hPR) in T47D human breast cancer cell line; type: functional, cell-based
T3 sequence (P06401 whole entry): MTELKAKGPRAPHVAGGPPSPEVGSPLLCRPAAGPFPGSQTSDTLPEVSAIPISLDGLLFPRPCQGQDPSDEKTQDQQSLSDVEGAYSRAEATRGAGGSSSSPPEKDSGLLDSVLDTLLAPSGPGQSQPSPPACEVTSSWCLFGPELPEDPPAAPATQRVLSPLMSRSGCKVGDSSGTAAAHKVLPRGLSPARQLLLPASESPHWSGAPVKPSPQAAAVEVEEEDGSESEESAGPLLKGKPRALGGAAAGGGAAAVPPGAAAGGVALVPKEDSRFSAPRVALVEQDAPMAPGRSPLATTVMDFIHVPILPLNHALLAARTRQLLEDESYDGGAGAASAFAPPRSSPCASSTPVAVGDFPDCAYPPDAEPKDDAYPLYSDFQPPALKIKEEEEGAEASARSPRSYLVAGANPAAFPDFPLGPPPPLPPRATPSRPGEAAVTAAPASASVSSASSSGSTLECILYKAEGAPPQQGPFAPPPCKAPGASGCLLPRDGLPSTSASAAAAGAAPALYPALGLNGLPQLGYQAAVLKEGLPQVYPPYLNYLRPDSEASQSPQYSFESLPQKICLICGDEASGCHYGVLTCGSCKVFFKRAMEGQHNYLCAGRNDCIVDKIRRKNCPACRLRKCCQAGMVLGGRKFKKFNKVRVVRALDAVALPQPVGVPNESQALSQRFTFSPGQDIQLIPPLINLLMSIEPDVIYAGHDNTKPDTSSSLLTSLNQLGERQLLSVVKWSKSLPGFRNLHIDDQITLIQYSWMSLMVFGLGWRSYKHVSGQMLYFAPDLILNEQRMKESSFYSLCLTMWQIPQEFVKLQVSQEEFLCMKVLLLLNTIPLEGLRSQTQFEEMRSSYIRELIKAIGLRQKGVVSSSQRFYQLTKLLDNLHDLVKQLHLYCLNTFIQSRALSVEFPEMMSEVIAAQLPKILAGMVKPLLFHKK

[3] = biological target: T4, Glucocorticoid receptor (Homo sapiens) (UniProt P04150); experiment: Percent inhibition of glucocorticoid receptor transcriptional activity at Dexamethasone EC50; type: functional
T4 sequence (whole entry): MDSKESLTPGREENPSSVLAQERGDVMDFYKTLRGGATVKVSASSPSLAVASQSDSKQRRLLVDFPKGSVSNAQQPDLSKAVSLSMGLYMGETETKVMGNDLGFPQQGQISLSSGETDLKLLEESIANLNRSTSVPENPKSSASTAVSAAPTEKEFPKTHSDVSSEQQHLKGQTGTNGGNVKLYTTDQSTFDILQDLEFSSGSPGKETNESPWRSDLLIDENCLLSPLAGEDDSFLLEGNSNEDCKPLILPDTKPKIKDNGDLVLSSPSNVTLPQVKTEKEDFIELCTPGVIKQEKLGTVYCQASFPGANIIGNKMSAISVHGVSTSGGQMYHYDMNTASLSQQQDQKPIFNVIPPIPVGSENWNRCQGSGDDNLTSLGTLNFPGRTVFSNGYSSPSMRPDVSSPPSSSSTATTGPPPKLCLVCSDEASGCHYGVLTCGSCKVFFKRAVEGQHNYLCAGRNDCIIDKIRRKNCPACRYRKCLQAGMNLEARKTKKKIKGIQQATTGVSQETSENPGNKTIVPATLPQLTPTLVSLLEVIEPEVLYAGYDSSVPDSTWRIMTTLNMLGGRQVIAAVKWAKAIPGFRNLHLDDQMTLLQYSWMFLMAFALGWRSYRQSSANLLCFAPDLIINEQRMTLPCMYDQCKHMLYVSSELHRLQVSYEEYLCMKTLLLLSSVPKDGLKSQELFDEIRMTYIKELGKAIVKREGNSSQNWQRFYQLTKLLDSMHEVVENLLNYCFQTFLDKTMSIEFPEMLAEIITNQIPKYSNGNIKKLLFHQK

Progesterone receptor [4] = biological target: T3, Progesterone receptor; experiment: Human progesterone receptor (hPR) agonist activity expressed in CV-1 cells; type: functional, cell-based
Progesterone receptor [5] = biological target: T3, Progesterone receptor; experiment: Human progesterone receptor (hPR) agonist activity in T47D human breast cancer cell line; type: functional, cell-based
Glucocorticoid receptor = biological target: T5, Glucocorticoid receptor (Homo sapiens, UniProt P04150); experiment: Cross-reactivity as binding to human glucocorticoid receptor (hGR); type: functional
T5 sequence (P04150 whole entry): T4 sequence (whole entry)

[6] = biological target: T6, Mineralocorticoid receptor (Homo sapiens) (UniProt P08235); experiment: Percent inhibition of mineralocorticoid receptor transcriptional activity at aldosterone EC50; type: functional
T6 sequence (whole entry): T1 sequence (P08235 whole entry)

Progesterone receptor [7] = biological target: T3, Progesterone receptor; experiment: Binding affinity against human progesterone receptor (hPR) in a competitive binding assay

CC1=CC(C)(C)Nc2ccc(-c3csc(C#N)c3)cc21
pIC50 [1]: 5.69
pIC50 (Androgen receptor): 6.31
pIC50 (Progesterone receptor [2]): 6.97
Efficacy [3]: 83%
pEC50 (Progesterone receptor [4]): 5.74
pEC50 (Progesterone receptor [5]): 6.61
pIC50 (Glucocorticoid receptor): 5.59
Efficacy [6]: 88%
pKi (Progesterone receptor [7]): 8.46
